Experiments:
PI3Kδ = PI3Kδ (Homo sapiens (Human), UniProt O00329); assay: PI3Kδ enzyme activity inhibition IC50 evaluation assay; assay type: biochemical; conditions: luminescence, 25 μM ATP, 50 μM PIP2, 2 hrs room temperature
Description: (§1) PI3Kα, PI3Kδ, PI3Kβ and PI3Kγ Enzyme Activity Inhibition IC50 Evaluation Assay
• 1. Buffer preparation: 50 mM HEPES, pH 7.5, 3 mM MgCl2, 1 mM EGTA, 100 mM NaCl, 0.03% CHAPS. • 2. Compound was formulated in 100% DMSO in a concentration gradient, and added to a 384-well plate to a final DMSO concentration of 1%. • 3. PI3Kα, PI3Kδ, PI3Kβ and PI3Kγ enzymes were diluted to an optimum concentration with the following buffer: 50 mM HEPES, pH 7.5, 3 mM MgCl2, 1 mM EGTA, 100 mM NaCl, 0.03% CHAPS, 2 mM DTT, and transferred to a 384-well plate and incubated with the compound for a certain time. • 4. […] For PI3Kβ and PI3Kγ, it was still necessary to further add 10 μL ADP-Glo Detection Reagent, and then equilibrated at room temperature for 30 minutes. • 5. Read Luminescense with FlexStation, and calculate the inhibition rate as the average of two tests.

PI3Kα = PI3Kα (Homo sapiens (Human), UniProt P42336); assay: PI3Kα enzyme activity inhibition IC50 evaluation assay; assay type: biochemical; conditions: ratio PI3Kα vs PI3Kδ
PI3Kα, sequence (P42336 whole entry): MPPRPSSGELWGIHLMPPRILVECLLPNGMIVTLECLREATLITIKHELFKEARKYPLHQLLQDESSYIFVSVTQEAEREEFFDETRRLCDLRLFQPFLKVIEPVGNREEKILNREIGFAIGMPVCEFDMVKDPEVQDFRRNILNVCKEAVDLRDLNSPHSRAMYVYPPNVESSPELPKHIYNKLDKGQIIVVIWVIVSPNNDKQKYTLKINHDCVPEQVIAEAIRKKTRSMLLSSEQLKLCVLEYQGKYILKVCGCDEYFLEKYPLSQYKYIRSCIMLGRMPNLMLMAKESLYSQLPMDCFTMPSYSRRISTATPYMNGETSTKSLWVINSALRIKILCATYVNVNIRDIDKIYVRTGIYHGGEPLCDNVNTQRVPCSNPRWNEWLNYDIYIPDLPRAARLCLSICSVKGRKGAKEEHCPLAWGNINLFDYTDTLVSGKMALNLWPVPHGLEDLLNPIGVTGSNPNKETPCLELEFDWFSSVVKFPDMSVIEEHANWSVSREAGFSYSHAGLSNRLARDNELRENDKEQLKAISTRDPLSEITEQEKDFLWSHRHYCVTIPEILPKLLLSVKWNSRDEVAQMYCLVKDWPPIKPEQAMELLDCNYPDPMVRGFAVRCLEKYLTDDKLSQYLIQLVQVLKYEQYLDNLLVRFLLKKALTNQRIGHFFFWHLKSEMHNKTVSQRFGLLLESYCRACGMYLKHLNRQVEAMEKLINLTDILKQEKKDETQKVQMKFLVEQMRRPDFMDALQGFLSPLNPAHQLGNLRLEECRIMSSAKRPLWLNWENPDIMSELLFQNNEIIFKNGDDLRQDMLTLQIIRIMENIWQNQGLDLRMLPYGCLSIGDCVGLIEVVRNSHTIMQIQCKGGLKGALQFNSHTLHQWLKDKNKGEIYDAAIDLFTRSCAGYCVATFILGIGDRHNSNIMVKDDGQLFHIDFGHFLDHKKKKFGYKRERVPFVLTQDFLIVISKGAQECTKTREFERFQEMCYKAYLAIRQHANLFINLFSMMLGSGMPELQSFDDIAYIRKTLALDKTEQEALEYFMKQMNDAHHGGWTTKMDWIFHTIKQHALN
PI3Kα, sequence (P27986 whole entry partner): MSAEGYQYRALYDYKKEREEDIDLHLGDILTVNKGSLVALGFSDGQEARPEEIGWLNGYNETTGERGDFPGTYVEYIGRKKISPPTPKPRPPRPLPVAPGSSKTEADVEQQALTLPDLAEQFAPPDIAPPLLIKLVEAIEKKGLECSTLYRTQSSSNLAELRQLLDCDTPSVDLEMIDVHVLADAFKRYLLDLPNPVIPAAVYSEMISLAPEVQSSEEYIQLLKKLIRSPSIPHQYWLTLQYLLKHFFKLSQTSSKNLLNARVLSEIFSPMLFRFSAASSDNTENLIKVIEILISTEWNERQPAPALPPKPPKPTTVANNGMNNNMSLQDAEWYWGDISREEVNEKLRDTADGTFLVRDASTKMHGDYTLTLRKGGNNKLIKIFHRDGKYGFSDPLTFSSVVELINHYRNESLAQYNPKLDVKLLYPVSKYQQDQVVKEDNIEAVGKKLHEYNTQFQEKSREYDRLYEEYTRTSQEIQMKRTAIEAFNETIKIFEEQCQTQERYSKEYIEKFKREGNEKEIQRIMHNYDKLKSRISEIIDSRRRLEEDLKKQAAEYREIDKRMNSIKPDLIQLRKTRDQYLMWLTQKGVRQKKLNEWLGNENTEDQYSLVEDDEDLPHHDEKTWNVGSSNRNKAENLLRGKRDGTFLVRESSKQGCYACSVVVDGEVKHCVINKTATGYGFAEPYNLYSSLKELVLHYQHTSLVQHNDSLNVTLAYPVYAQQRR
Description: as §1
• 1. Buffer preparation: 50 mM HEPES, pH 7.5, 3 mM MgCl2, 1 mM EGTA, 100 mM NaCl, 0.03% CHAPS. • 2. Compound was formulated in 100% DMSO in a concentration gradient, and added to a 384-well plate to a final DMSO concentration of 1%. • 3. PI3Kα, PI3Kδ, PI3Kβ and PI3Kγ enzymes were diluted to an optimum concentration with the following buffer: 50 mM HEPES, pH 7.5, 3 mM MgCl2, 1 mM EGTA, 100 mM NaCl, 0.03% CHAPS, 2 mM DTT, and transferred to a 384-well plate and incubated with the compound for a certain time. • 4. Substrate was diluted to an optimum concentration with the following buffer: 50 mM HEPES, pH 7.5, 3 mM MgCl2, 1 mM EGTA, 100 mM NaCl, 0.03% CHAPS, 2 mM DTT, 50 μM PIP2, 25 μM ATP; then added to a 384-well plate to initiate the reaction, and for PI3Kα, PI3Kβ and PI3Kγ at room temperature reacted for 1 hr, for PI3Kδ at room temperature reacted for 2 hrs. For PI3Kβ and PI3Kγ, it was still necessary to further add 10 μL ADP-Glo Detection Reagent, and then equilibrated at room temperature for 30 minutes. • 5. Read Luminescense with FlexStation, and calculate the inhibition rate as the average of two tests.

PI3Kδ, sequence (O00329 whole entry): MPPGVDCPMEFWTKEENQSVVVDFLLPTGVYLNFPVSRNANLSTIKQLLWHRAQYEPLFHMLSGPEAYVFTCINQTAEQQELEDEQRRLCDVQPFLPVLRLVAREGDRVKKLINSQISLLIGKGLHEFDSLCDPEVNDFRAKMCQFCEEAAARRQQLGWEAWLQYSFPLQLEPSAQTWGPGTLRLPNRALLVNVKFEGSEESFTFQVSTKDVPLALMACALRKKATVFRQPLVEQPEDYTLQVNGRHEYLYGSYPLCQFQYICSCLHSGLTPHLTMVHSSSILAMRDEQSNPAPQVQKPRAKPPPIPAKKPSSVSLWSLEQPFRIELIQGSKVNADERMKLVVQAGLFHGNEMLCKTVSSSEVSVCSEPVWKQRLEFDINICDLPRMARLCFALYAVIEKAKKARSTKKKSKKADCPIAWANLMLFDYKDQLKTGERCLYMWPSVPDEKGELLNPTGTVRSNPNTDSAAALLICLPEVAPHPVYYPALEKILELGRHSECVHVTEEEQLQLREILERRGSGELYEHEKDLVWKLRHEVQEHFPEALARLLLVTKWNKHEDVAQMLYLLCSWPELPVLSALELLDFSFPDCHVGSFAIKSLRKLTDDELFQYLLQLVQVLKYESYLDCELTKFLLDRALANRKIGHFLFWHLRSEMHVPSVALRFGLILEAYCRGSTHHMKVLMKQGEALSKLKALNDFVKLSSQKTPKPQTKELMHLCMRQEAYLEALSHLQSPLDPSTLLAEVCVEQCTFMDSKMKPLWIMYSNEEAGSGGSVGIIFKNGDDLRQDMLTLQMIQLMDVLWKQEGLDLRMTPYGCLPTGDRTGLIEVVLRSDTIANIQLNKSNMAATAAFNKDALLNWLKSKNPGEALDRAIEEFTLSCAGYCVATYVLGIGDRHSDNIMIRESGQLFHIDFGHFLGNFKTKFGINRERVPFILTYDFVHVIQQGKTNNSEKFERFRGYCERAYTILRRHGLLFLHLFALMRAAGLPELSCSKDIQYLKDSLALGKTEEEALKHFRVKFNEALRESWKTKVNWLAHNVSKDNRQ
PI3Kδ, sequence (P27986 whole entry partner): as the sequence (P27986 whole entry partner) above

IC50 (PI3Kδ) [nM] | α/δ selectivity (PI3Kα) | SMILES
6.6 | 27 | COc1ncc(-c2nc(N3CCOCC3)nc3c(CN4CCS(=O)(=O)CC4)c(C)sc23)cc1NS(C)(=O)=O [Compound 113]
5 | 44 | COC(=O)N1CCN(Cc2c(C)sc3c(-c4cnc(OC)c(NS(C)(=O)=O)c4)nc(N4CCOCC4)nc23)CC1 [Compound 114]
13 | 67 | COc1ncc(-c2nc(N3CCOCC3)nc3c(CN4CCC5(CC4)COC5)c(C)sc23)cc1NS(C)(=O)=O [Compound 115]
4.3 | 57 | COc1ncc(-c2nc(N3CCOCC3)nc3c(CN4CCn5cnnc5C4)c(C)sc23)cc1NS(C)(=O)=O [Compound 116]
7.2 | 213 | COc1ncc(-c2nc(N3CCOCC3)nc3c(CN4CCC(CO)CC4)c(C)sc23)cc1NS(C)(=O)=O [Compound 117]
2.6 | 92 | COc1ncc(-c2nc(N3CCOCC3)nc3c(CN4CCC(C(C)(C)O)CC4)c(C)sc23)cc1NS(=O)(=O)C(F)(F)F [Compound 118]
5 | 84 | COc1ncc(-c2nc(N3CCOCC3)nc3c(CN4CCN(C(C)(C)CO)CC4)c(C)sc23)cc1NS(C)(=O)=O [Compound 119]
5 | 24 | Cc1sc2c(-c3cnc(Cl)c(NS(C)(=O)=O)c3)nc(N3CCOCC3)nc2c1CN1CCC(C(C)(C)O)CC1 [Compound 120]
9 | 172 | CCN(CC)C1CN(Cc2c(C)sc3c(-c4cnc(OC)c(NS(C)(=O)=O)c4)nc(N4CCOCC4)nc23)C1 [Compound 122]
6.8 | 175 | COc1ncc(-c2nc(N3CCOCC3)nc3c(CN4CCC(N5CCCC5)C(F)(F)C4)c(C)sc23)cc1NS(C)(=O)=O (centres unmarked) [Compound 123]
3.1 | 430 | COc1ncc(-c2nc(N3CCOCC3)nc3c(CN4CCC(N5CCC[C@H]5C(F)(F)F)CC4)c(C)sc23)cc1NS(C)(=O)=O [Compound 124]
2.6 | 239 | COc1ncc(-c2nc(N3CCOCC3)nc3c(CN4CCC(N5CCC[C@H]5C)CC4)c(C)sc23)cc1NS(C)(=O)=O [Compound 125]
6 | 223 | COc1ncc(-c2nc(N3CCOCC3)nc3c(CN4CCC(N5CCC(F)CC5)CC4)c(C)sc23)cc1NS(C)(=O)=O [Compound 128]
19 | 100 | COc1ncc(-c2nc(N3CCOCC3)nc3c(CN4CC[C@H](N5CCCC5)C4)c(C)sc23)cc1NS(C)(=O)=O [Compound 129]
6.7 | 273 | COc1ncc(-c2nc(N3CCOCC3)nc3c(CN4CC[C@@H](N5CCCC5)C4)c(C)sc23)cc1NS(C)(=O)=O [Compound 130]
6.2 | 627 | COc1ncc(-c2nc(N3CCOCC3)nc3c(CN4CCC(C5CC5)CC4)c(C)sc23)cc1NS(C)(=O)=O [Compound 131]

More lines, now with the values behind:

SMILES | IC50 (PI3Kδ) [nM] | α/δ selectivity (PI3Kα)
COc1ncc(-c2nc(N3CCOCC3)nc3c(CN4CCN(S(C)(=O)=O)CC4)c(C)sc23)cc1NS(C)(=O)=O [Compound 61] | 4.7 | 12
COc1ncc(-c2nc(N3CCOCC3)nc3c(CN4CCN(C(=O)C(F)(F)F)CC4)csc23)cc1NS(C)(=O)=O [Compound 62] | 5.6 | 104
COc1ncc(-c2nc(N3CCOCC3)nc3c(CN4CCN(C(=O)NCC(F)(F)F)CC4)csc23)cc1NS(C)(=O)=O [Compound 63] | 12 | 27
COc1ncc(-c2nc(N3CCOCC3)nc3c(CN4CCN(CC(F)(F)F)CC4)csc23)cc1NS(C)(=O)=O [Compound 64] | 9.1 | 110
COc1ncc(-c2nc(N3CCOCC3)nc3c(CN4CCN(C(C)(C)C)CC4)csc23)cc1NS(=O)(=O)C1CC1 [Compound 67] | 3.6 | 195
COc1ncc(-c2nc(N3CCOCC3)nc3c(CN4CCN(C)CC4)csc23)cc1NS(=O)(=O)c1ccc(F)cc1F [Compound 68] | 71 | 19
COc1ncc(-c2nc(N3CCOCC3)nc3c(CN4CCN(C)CC4)csc23)cc1NS(=O)(=O)C1CC1 [Compound 69] | 31 | 79
CCS(=O)(=O)Nc1cc(-c2nc(N3CCOCC3)nc3c(CN4CCN(C)CC4)csc23)cnc1OC [Compound 70] | 23 | 87
COc1ncc(-c2nc(N3CCOCC3)nc3c(CN4CCN(C)CC4)csc23)cc1NS(=O)(=O)N(C)C [Compound 72] | 60 | 29
COc1ncc(-c2nc(N3CCOCC3)nc3c(CN4CCN(C(=O)[C@@H](C)O)CC4)c(C)sc23)cc1NS(C)(=O)=O [Compound 73] | 4.4 | 18
COc1ncc(-c2nc(N3CCOCC3)nc3c(CN4CCN(C(=O)[C@H](C)O)CC4)c(C)sc23)cc1NS(C)(=O)=O [Compound 74] | 4.4 | 13
CN1CCN(Cc2csc3c(-c4cncc(NS(C)(=O)=O)c4)nc(N4CCOCC4)nc23)CC1 [Compound 75] | 31 | 19
CCNC(=O)C1CCN(Cc2csc3c(-c4cnc(OC)c(NS(C)(=O)=O)c4)nc(N4CCOCC4)nc23)CC1 [Compound 76] | 7.3 | 60
COc1ncc(-c2nc(N3CCOCC3)nc3c(CN4CCN(C5CC(C)OC(C)C5)CC4)csc23)cc1NS(C)(=O)=O (centres unmarked) [Compound 77] | 7.1 | 52
COc1ncc(-c2nc(N3CCOCC3)nc3c(CN4CCC(C(C)(C)F)CC4)c(C)sc23)cc1NS(=O)(=O)C1CC1 [Compound 80] | 39 | >256
CNC1CCN(Cc2c(C)sc3c(-c4cnc(OC)c(NS(C)(=O)=O)c4)nc(N4CCOCC4)nc23)CC1 [Compound 92] | 71 | 42
COc1ncc(-c2nc(N3CCOCC3)nc3c(CN4CCC(N(C)C)CC4)c(C)sc23)cc1NS(C)(=O)=O [Compound 93] | 10 | 82
COc1ncc(-c2nc(N3CCOCC3)nc3c(CN(C)C)c(C)sc23)cc1NS(C)(=O)=O [Compound 94] | 32 | 31
COc1ncc(-c2nc(N3CCOCC3)nc3c(CN4CCNCC4)c(C)sc23)cc1NS(C)(=O)=O [Compound 96] | 31 | 64
COc1ncc(-c2nc(N3CCOCC3)nc3cc(C)sc23)cc1NS(C)(=O)=O [Compound 97] | 190 | 10
COc1ncc(-c2nc(N3CCOCC3)nc3c(CN4CCOCC4)c(C)sc23)cc1NS(C)(=O)=O [Compound 98] | 12 | 30
COc1ncc(-c2nc(N3CCOCC3)nc3c(CN4CCC(F)CC4)c(C)sc23)cc1NS(C)(=O)=O [Compound 105] | 31 | 77
COc1ncc(-c2nc(N3CCOCC3)nc3c(CN4CCC(=O)CC4)c(C)sc23)cc1NS(C)(=O)=O [Compound 107] | 11 | 45
COC(=O)C1CCN(Cc2c(C)sc3c(-c4cnc(OC)c(NS(C)(=O)=O)c4)nc(N4CCOCC4)nc23)CC1 [Compound 111] | 6.5 | 301

From US9745321B2, “Fused pyrimidine compound, intermediate, preparation method therefor, and composition and application thereof” (SHANGHAI YINGLI PHARMACEUTICAL CO., LTD, priority 2013, dated 2017)
